We go through 17 molecules from ChEMBL document CHEMBL3808365, “Potent and Selective CK2 Kinase Inhibitors with Effects on Wnt Pathway Signaling in Vivo” (ACS Med Chem Lett, 2016).

The structures appear in SMILES notation. ≈ marks a conversion by molar mass, not a printed value.

One may read the IC50 as the concentration at which inhibition is half-maximal. What is called solubility is the dissolved amount per volume that the medium holds. Usually fraction unbound stands for free concentration divided by total concentration. The GI50 is the concentration that inhibits growth by half. A high value points to lower sensitivity of the cells.

The nature of data set [1]: Intrinsic clearance in rat hepatocyte assessed per 10^6 cells. Conditions: hepatocytes, read-out: CLH. The format is ADME, cell-based.
The nature of data set [2]: Intrinsic clearance in human liver microsomes. It is filed as ADME. Conditions: read-out: CLH. A general note: Microsomes from liver hold many membrane-bound enzymes, among them those of drug oxidation.
Data set [3] has as its target Casein kinase II subunit alpha (Homo sapiens, UniProt P68400). As to the kind of experiment: Inhibition of full length N-terminal 6xHis-tagged recombinant human CK2alpha expressed in fall armyworm Sf21 cells using BODIPY-FL-RRRDDDSDDD-CONH2 as substrate after 90 mins by mobility shift assay.
The target of another data set is Casein kinase II (Homo sapiens, UniProt P19784+P67870+P68400). As to the kind of experiment: Inhibition of CK2 in human DLD1 HA-myr-AKT1 cells assessed as suppression of AKTser129 phosphorylation after 3 to 24 hrs by Western blot analysis. Background: Immunoblotting shows a protein as a band on a membrane.
Casein kinase II, sequence (P67870 whole entry): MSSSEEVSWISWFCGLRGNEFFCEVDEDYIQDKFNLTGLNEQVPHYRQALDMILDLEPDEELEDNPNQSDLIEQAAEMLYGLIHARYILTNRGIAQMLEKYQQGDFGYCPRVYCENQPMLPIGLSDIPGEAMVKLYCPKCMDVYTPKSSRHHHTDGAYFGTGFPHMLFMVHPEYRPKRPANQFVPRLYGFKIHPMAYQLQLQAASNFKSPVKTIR
Casein kinase II, sequence (P68400 whole entry): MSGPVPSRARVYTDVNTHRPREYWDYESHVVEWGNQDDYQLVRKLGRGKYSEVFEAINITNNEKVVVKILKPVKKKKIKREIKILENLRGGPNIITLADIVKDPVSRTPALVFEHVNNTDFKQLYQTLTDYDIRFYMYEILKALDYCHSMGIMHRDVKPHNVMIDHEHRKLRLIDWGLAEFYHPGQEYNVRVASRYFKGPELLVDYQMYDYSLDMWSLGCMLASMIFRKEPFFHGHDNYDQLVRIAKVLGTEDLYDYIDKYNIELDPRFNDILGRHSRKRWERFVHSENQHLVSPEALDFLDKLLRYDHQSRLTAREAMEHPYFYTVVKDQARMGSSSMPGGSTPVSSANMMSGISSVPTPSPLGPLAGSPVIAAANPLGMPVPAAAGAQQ
Casein kinase II, sequence (P19784 whole entry): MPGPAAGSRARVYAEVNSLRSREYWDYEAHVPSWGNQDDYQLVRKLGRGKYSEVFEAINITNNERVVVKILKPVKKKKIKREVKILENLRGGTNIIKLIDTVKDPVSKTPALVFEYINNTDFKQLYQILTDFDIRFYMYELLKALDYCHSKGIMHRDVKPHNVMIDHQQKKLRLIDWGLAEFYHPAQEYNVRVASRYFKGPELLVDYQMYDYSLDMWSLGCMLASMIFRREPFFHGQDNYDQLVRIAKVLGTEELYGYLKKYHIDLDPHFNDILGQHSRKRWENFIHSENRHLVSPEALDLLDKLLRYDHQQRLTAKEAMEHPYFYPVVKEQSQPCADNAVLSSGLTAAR
Data set [4] in a line: Aqueous solubility of the compound in phosphate buffer at pH 7.4 incubated for 24 hrs by LC/MS/MS method. It is filed as physicochemical.
Data set [5] is described as follows: Fraction unbound in human plasma at 10 uM by equilibrium dialysis method. The format is ADME, cell-free.
A short description of data set [6]: Inhibition of CK2 in mouse L-Wnt3a cells assessed as suppression of Wnt3a-mediated L S/L Super TOPFlash reporter gene transcription after 24 hrs. Conditions: L Wnt-3A. (Reporter assays use an easily measured gene product as a stand-in for the process of interest.)
Data set [7] in a line: Antiproliferative activity against human […] cells after 72 hrs by alamar blue assay. The format is functional. Conditions: HCT-116, 72 h.
Data set [8] in a line: Antiproliferative activity against human SW620 cells after 72 hrs by alamar blue assay. The format is functional. Conditions: SW-620, 72 h.
Data set [9] is described as follows: Antiproliferative activity against human DLD1 cells after 72 hrs by alamar blue assay. The format is functional. The following applies: DLD-1, 72 h.

Casein kinase II subunit alpha, sequence (P68400 whole entry): as the sequence (P68400 whole entry) above

As to `CC(=O)Nc1cc(Nc2cc(NC3CC3)n3ncc(C#N)c3n2)ccc1N(C)C[C@H](C)N`, the hepatocyte CLint in data set [1] is below 1 µL/min/1e6 cells. The microsomal CLint in data set [2] is below 3 µL/min/mg. Besides, the IC50 in [3] is below 0.003 µM; at Casein kinase II it was 0.004 µM; in data set [6], 0.67 µM. In [4], this molecule had a solubility at 24 h of 895 µM (≈ 388 µg/mL). The fraction unbound at 10 µM in data set [5] came out at 0.36.
Turning to `CCN(CCN)c1ccc(Nc2cc(NC3CC3)n3ncc(C#N)c3n2)cc1NC(C)=O`, the hepatocyte CLint in data set [1] was found to be 2 µL/min/1e6 cells. In [2], the microsomal CLint turned out to be 5 µL/min/mg. Further, the IC50 in data set [3] is below 0.003 µM; in data set [6] it was 0.032 µM. In [4], this molecule returned a solubility at 24 h above 1000 µM. The same molecule returned a fraction unbound at 10 µM in data set [5] of 0.3.
For the molecule `CC(=O)Nc1cc(Nc2cc(NC3CC3)n3ncc(C#N)c3n2)ccc1N1CC[C@H](N(C)C)C1`, the hepatocyte CLint in data set [1] worked out at 2.5 µL/min/1e6 cells. In [2], the microsomal CLint came out at 9 µL/min/mg. Besides, the solubility at 24 h in data set [4] is above 800 µM. In data set [5], this molecule gave a fraction unbound at 10 µM of 0.29. Also, in data set [6], the IC50 worked out at 0.38 µM.
`CC(=O)Nc1cc(Nc2cc(NC3CC3)n3ncc(C#N)c3n2)ccc1N1CCC[C@@H](N(C)C)C1`: the hepatocyte CLint in data set [1] was below 1 µL/min/1e6 cells. In addition, in data set [2], the microsomal CLint amounted to 19 µL/min/mg. In addition, the solubility at 24 h in data set [4] is above 900 µM. In data set [5], this molecule had a fraction unbound at 10 µM of 0.11. Moreover, the IC50 in [6] stood at 0.51 µM.
As to `CC(=O)Nc1cccc(Nc2cc(NC3CC3)n3ncc(C#N)c3n2)c1`, the hepatocyte CLint in data set [1] turned out to be 26 µL/min/1e6 cells. For the same molecule, the microsomal CLint in data set [2] is 20 µL/min/mg. For the same molecule, the GI50 in data set [7] and in data set [8] was 0.7 µM each time. The molecule also had a solubility at 24 h in [4] of 15 µM (≈ 5.21 µg/mL). For the same molecule, the fraction unbound at 10 µM in [5] was 0.05. For the same molecule, the IC50 in data set [6] was 0.6 µM.
With `CC(=O)Nc1cc(Nc2cc(NC3CC3)n3ncc(C#N)c3n2)ccc1N(C)C[C@@H](C)N`, in data set [1], the hepatocyte CLint is below 1 µL/min/1e6 cells. In addition, the microsomal CLint in data set [2] is below 3 µL/min/mg. The IC50 in data set [3] is below 0.003 µM; on Casein kinase II, 0.004 µM; in [6], 0.4 µM. In addition, the concentration in solution in [4] (solubility at 24 h) was 825 µM (≈ 358 µg/mL). The molecule also had a fraction unbound at 10 µM in data set [5] of 0.33.
On to `CCN(CC)CCN(C)c1ccc(Nc2cc(NC3CC3)n3ncc(C#N)c3n2)cc1NC(C)=O`, for which, in data set [1], the hepatocyte CLint stood at 27 µL/min/1e6 cells. Also, the microsomal CLint in data set [2] is 44 µL/min/mg. Also, the solubility at 24 h in [4] was above 1000 µM. This molecule showed a free fraction (fraction unbound) at 10 µM in data set [5] of 0.23. The IC50 in data set [6] is 0.39 µM.
In the case of `CC(=O)Nc1cc(Nc2cc(NC3CC3)n3ncc(C#N)c3n2)ccc1N1CC[C@@H](N)C1`, the hepatocyte CLint in data set [1] turned out to be 2.5 µL/min/1e6 cells. In addition, in data set [2], the microsomal CLint is below 3 µL/min/mg. In addition, the results for the IC50 (in [3]; at Casein kinase II; in data set [6]) were below 0.003 µM, 0.07 µM and 0.96 µM, respectively. The same molecule had a solubility at 24 h in data set [4] of 812 µM (≈ 350 µg/mL). In [5], this molecule gave a fraction unbound at 10 µM of 0.32.
On to `CC(=O)Nc1cc(Nc2cc(NC3CC3)n3ncc(C#N)c3n2)ccc1C`, for which the hepatocyte CLint in [1] came to 5 µL/min/1e6 cells. Besides, the microsomal CLint in data set [2] came to 10 µL/min/mg. In addition, the GI50 in data set [7] was 0.08 µM; in data set [8], 0.1 µM; in data set [9] it was 0.17 µM. This molecule also displayed a fraction unbound at 10 µM in [5] of 0.1.
Take `CC(=O)Nc1cc(Nc2cc(NC3CC3)n3ncc(C#N)c3n2)ccc1N1CC[C@H](N)C1`: in data set [1], the hepatocyte CLint is below 1 µL/min/1e6 cells. Further, the microsomal CLint in data set [2] was below 3 µL/min/mg. Also, the values for the IC50 (in data set [3]; at Casein kinase II; in data set [6]) were below 0.003 µM, 0.07 µM and 0.69 µM, respectively. The solubility at 24 h in data set [4] was found to be 590 µM (≈ 255 µg/mL). The fraction unbound at 10 µM in data set [5] turned out to be 0.31.
Consider `CC(=O)Nc1cc(Nc2cc(NC3CC3)n3ncc(C#N)c3n2)ccc1N1CCC[C@@H](N)C1`, for which, in [1], the hepatocyte CLint was below 1 µL/min/1e6 cells. In addition, the microsomal CLint in data set [2] was below 3 µL/min/mg. This molecule also came in with a solubility at 24 h in data set [4] above 1000 µM. The same molecule showed a fraction unbound at 10 µM in [5] of 0.2. In addition, the IC50 in data set [6] came to 0.65 µM.
For `CC(=O)Nc1cc(Nc2cc(NC3CC3)n3ncc(C#N)c3n2)ccc1N(C)CCO`, the hepatocyte CLint in [1] came to 17 µL/min/1e6 cells. In data set [2], the microsomal CLint stood at 21 µL/min/mg. In addition, in data set [3], the IC50 was below 0.003 µM. In [4], this molecule had a solubility at 24 h of 2 µM (≈ 0.841 µg/mL). For the same molecule, the fraction unbound at 10 µM in data set [5] came to 0.07.
As for `CC(=O)Nc1cc(Nc2cc(NC3CC3)n3ncc(C#N)c3n2)ccc1N(C)CCN1CC(F)(F)C1`, the solubility at 24 h in data set [4] was found to be 241 µM (≈ 119 µg/mL). For the same molecule, the fraction unbound at 10 µM in data set [5] stood at 0.02. The IC50 in data set [6] was 0.76 µM.
Turning to `CC(=O)Nc1cc(Nc2cc(NC3CC3)n3ncc(C#N)c3n2)ccc1N1CCC[C@H](N)C1`, the hepatocyte CLint in [1] was below 1 µL/min/1e6 cells. Further, the microsomal CLint in data set [2] was below 3 µL/min/mg. In data set [4], this molecule registered a solubility at 24 h of 704 µM (≈ 314 µg/mL). Moreover, the fraction unbound at 10 µM in [5] was found to be 0.22. In addition, the IC50 in data set [6] amounted to 0.18 µM.
For the molecule `CC(=O)Nc1cc(Nc2cc(NC3CC3)n3ncc(C#N)c3n2)ccc1N(C)CCN1CCOCC1`, the hepatocyte CLint in data set [1] is above 300 µL/min/1e6 cells. For the same molecule, the microsomal CLint in [2] came to 135 µL/min/mg. Also, the IC50 in data set [3] is below 0.003 µM; at Casein kinase II it was 0.005 µM; in [6], 0.3 µM. This molecule yielded a solubility at 24 h in data set [4] of 275 µM (≈ 135 µg/mL). In data set [5], this molecule returned a fraction unbound at 10 µM of 0.18.
Regarding `CC(=O)Nc1cc(Nc2cc(NC3CC3)n3ncc(C#N)c3n2)ccc1N(C)CCCN(C)C`, the hepatocyte CLint in data set [1] turned out to be 15 µL/min/1e6 cells. In addition, the microsomal CLint in data set [2] is below 4 µL/min/mg. This molecule had a solubility at 24 h in data set [4] above 1000 µM. In [5], the fraction unbound at 10 µM is 0.22. The IC50 in data set [6] was determined as 0.73 µM.
The matching figures for `CC(=O)Nc1cc(Nc2cc(NC3CC3)n3ncc(C#N)c3n2)ccc1N1CCN(C)CC1`: 7 µL/min/1e6 cells, below 4 µL/min/mg, 570 µM (≈ 254 µg/mL), 0.18 and 1.1 µM.
